From article PMC8091166 (Journal of the American Chemical Society, 2017) come the findings set out here.

The subject of series [1] is intracellular reactive oxygen species (ROS) in HeLa cells. Description: ROS analysis with DCFDA and flow cytometry. It is filed as cell-based. Particulars: DCFDA. (A flow cytometer gives signals particle by particle.)
Series [2] has as its system mitochondrial membrane potential (MMP) in HeLa cells. Description: JC-1 assay. It counts as cell-based. Particulars: 13 at 5 or 10 μM.
Series [3] deals with HeLa cells. Put plainly: MTT assay, in vitro anticancer activity in HeLa cells. In general terms: Formazan colour is commonly taken as a measure of viable cells.
The nature of series [4]: Capacity factor on a C18 RP-HPLC column. It counts as physicochemical. Particulars: isocratic 40:60 MeCN:H2O, 0.1% TFA; for MeCN Complex Capacity Factor: MeCN adduct of the complex.
Series [5] deals with H460 lung cancer cell line. Put plainly: Cell viability in H460 cells. It counts as cell-based.
Series [6] relates to H460 CisR cisplatin-resistant lung cancer cell line. Put plainly: Cell viability in H460 CisR cells. It counts as cell-based.
Series [7] concerns MRC-5 normal lung fibroblasts. Put plainly: Cell viability in MRC-5 cells. It is filed as cell-based.
Series [8] deals with A2780CP70 cisplatin-resistant ovarian cancer cell line. Put plainly: Cell viability in A2780CP70 cells. It is filed as cell-based.
Series [9] has as its system A549 CisR cisplatin-resistant lung cancer cell line. Description: Cell viability in A549 CisR cells. It counts as cell-based.
Series [10] has as its system A549 lung cancer cell line. Description: Cell viability in A549 cells. It counts as cell-based.
The subject of series [11] is A2780 ovarian cancer cell line. Put plainly: Cell viability in A2780 cells. It is filed as cell-based.
Series [12] has as its system KBCP20 cisplatin-resistant cervical cancer cell line. Put plainly: Cell viability in KBCP20 cells. It counts as cell-based.
The subject of series [13] is KB-3-1 cervical cancer cell line. Description: Cell viability in KB-3-1 cells. It counts as cell-based.
Series [14] has as its system HeLa cells. Put plainly: Cell cycle analysis. It counts as cell-based.
The subject of series [15] is HeLa cells. Put plainly: Cell viability in the presence of inhibitors. It is filed as cell-based. As to conditions: 15 μM Z-VAD-FMK.
Series [16] has as its system PARP, cleaved PARP, LC3, ERK, p-ERK in HeLa cells. Put plainly: Western blot analysis of protein expression. It is filed as cell-based. In general terms: In western blotting, separated proteins are transferred to a membrane and probed.
For series [17], the system named is HeLa cells. Put plainly: Annexin V/PI assay. It is filed as cell-based.

Consider `OO` [Complex H2O2, H2O2], for which, in [1], the “increase in the intracellular ROS” value is reported as “greater than 30 fold”.
In the case of “carbonyl cyanide m-chlorophenyl hydrazine [CCCP]”, in [2], the “depolarization of the MMP (JC-1 aggregates)” value was “substantial reduction in the number of JC-1 aggregates”.
As to `O.[C-]#[O+].[C-]#[O+].[C-]#[O+].[Re+].c1ccc(-c2ccnc3c2ccc2c(-c4ccccc4)ccnc23)cc1` [Complex 14], the “relative cytotoxicity among the complexes” value with HeLa cells [3] is “substantially diminished relative to that of 13”. Also, the “MeCN Complex Capacity Factor” value in [4] is >17.
For `COC(=O)c1ccnc(-c2cc(C(=O)OC)ccn2)c1.O.[C-]#[O+].[C-]#[O+].[C-]#[O+].[Re+]` [Complex 11], the “relative cytotoxicity among the complexes” value in the series with HeLa cells [3] was “least active”. Also, in [4], the “MeCN Complex Capacity Factor” value was determined as 8.2 and the “Aqua Complex Capacity Factor” value is given as 4.2.
Turning to `N.N.[Cl][Pt][Cl]` [Cisplatin, cisplatin], the IC50 came to 0.75 ± 0.43 µM in series [5]; 3 ± 1.2 µM in the series on HeLa cells [3] (read-out: 50% growth inhibitory concentration (IC50), MTT assay); 3.4 ± 1.6 µM in series [6] (H460 CisR cells); 0.43 ± 0.14 µM in series [7]; 8.2 ± 1.8 µM in series [8] (A2780CP70 cells); 12.4 ± 8.5 µM in series [9] (A549 CisR cells). Further, the IC50 worked out at 3 ± 1.8 µM in series [10], 0.23 ± 0.07 µM in series [11], 36 ± 7 µM in series [12] and 1 ± 0.3 µM in [13]. Also, the “RF (H460), resistance factor” value in series [6] (IC50 in H460 CisR divided by IC50 in H460) is 4.5. Moreover, in series [8] (IC50 in A2780CP70 divided by IC50 in A2780), the “RF (A2780), resistance factor” value came to 36. In addition, the “RF (A549), resistance factor” value in series [9] (IC50 in A549 CisR divided by IC50 in A549) worked out at 4.1. For the same compound, in the series on HeLa cells [14], the “cell cycle arrest phase” value is given as “inhibits cells predominantly in the S-phase”. In addition, the “change of IC50 in the presence of Z-VAD-FMK” value with HeLa cells [15] is reported as “increased by a factor of four”. The “expression levels of PARP, cleaved PARP, LC3, ERK, p-ERK” value in series [16] was “induced the increase of cleaved PARP levels”.
Consider `COc1cc([C@@H]2c3cc4c(cc3[C@@H](O[C@@H]3O[C@@H]5CO[C@@H](C)O[C@H]5[C@H](O)[C@H]3O)[C@H]3COC(=O)[C@H]23)OCO4)cc(OC)c1O` [etoposide], for which, in the series with HeLa cells [17], the “effect of pan-caspase inhibitor Z-VAD-FMK in the annexin V assay” value is on record as “reduce the apoptotic population”.
